Results taken from US9796704B2, “Substituted quinazolines as receptor-type kinase inhibitors” (Symphony Evolution, Inc., priority 2002, dated 2017).

Key:
EphB4 = EphB4 (Homo sapiens (Human), UniProt P54760); assay: EphB4 kinase inhibition, 33P phosphoryl transfer assay (radiometric); format: biochemical
Method: Phosphorylated substrate products are quantified by scintillation spectrometry.
Kinase activity and compound inhibition are investigated using one or more of the three assay formats described below. The ATP concentrations are selected near its Michaelis-Menten constant (KM) for each individual kinase. Dose-response experiments are performed at ten different inhibitor concentrations in a 384-well plate format. […] These parameters are obtained by nonlinear regression algorithm built into ActivityBase software (available from ID Business Solutions Ltd., of Guildford, Surrey, UK). ^33P Phosphoryl Transfer Assay (Radiometric)
Greiner 384-well white clear bottom high binding plates (available from Greiner Bio-One, Inc., of Longwood, Fla.) are coated with 2 μg/well of protein or peptide substrate in a 50 μL volume overnight at ambient temperature. […] The coating solution is aspirated and the plates are washed once with 50 μL of assay buffer and padded dry. Subsequently compounds and enzymes are mixed with γ ^33P-ATP (3.3 μCi/nmol) in a total volume of 20 uL in suitable assay buffers (see Table 2). For example the final EphB4 reaction solution contains 20 mM TrisHCl, pH 7.5, 10 mM MgCl2, 0.01% Triton X-100, 0.1 mM NaVO3, 5 nM EphB4 enzyme and 5 μM ATP. […] The plates are subsequently washed 6-12 times with PBST or TBS buffer.

EGFR = EGFR (Homo sapiens (Human), UniProt P00533); assay: EGFR kinase inhibition, luciferase-coupled chemiluminescent assay (LCCA); conditions: read-out: EGFR IC50
EGFR, sequence (P00533 672-1210): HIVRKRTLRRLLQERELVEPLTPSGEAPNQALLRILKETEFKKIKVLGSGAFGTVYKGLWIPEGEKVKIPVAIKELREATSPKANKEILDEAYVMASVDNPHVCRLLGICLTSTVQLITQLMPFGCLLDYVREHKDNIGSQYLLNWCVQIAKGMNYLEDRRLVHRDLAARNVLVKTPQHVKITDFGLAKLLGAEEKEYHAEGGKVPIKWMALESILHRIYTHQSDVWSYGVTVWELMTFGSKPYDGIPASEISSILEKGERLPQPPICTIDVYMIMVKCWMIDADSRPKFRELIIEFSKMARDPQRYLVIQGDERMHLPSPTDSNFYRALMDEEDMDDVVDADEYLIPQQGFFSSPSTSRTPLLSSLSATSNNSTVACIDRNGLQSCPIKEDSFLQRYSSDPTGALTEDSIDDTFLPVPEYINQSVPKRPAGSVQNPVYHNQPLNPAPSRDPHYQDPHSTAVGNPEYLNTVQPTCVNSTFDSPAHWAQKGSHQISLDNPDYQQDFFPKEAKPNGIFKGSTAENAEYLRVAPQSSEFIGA
Method: Kinase activity and compound inhibition are investigated using one or more of the three assay formats described below. The ATP concentrations are selected near its Michaelis-Menten constant (KM) for each individual kinase. Dose-response experiments are performed at ten different inhibitor concentrations in a 384-well plate format. […] Typically H is close to unity.
In the LCCA assays, kinase activity is measured by the ATP consumption that is accurately measured by luciferase-coupled chemiluminescence. Greiner 384-well white clear bottom medium binding plates are used for LCCA. Briefly the kinase reaction is initiated by mixing compounds, ATP and kinases in a 20 μL volume. At the end of the kinase reaction, a 20 μL luciferase-luciferin mix is added and the chemiluminescent signal is read on a Wallac Victor^2 reader.

EphB4, sequence (P54760 605-890): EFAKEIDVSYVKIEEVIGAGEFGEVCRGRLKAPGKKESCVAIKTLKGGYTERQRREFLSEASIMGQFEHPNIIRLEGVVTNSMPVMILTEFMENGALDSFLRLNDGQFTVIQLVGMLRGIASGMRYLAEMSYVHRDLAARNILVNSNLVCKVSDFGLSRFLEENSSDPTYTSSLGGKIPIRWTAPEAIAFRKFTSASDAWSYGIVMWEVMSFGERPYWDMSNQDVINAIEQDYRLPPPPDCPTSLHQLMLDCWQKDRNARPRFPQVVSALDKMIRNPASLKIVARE

SMILES | IC50 (EphB4) [nM] | IC50 (EGFR) [nM]
COc1cc2c(Nc3ccc(Cl)c(Cl)c3)ncnc2cc1OCc1csc(C)n1 [Example 173, N-(3,4-dichlorophenyl)-6-(methyloxy)-7-{[(2-methyl-1,3-thiazol-4-yl)methyl]oxy}quinazolin-4-amine] | – | < 50
COc1cc2c(Nc3ccc(Cl)c(Cl)c3)ncnc2cc1OCc1cc(Cl)cc2c1OCOC2 [Example 174, 7-{[(6-chloro-4H-1,3-benzodioxin-8-yl)methyl]oxy}-N-(3,4-dichlorophenyl)-6-(methyloxy)quinazolin-4-amine] | – | < 50
COc1cc2c(Nc3ccc(Cl)c(Cl)c3)ncnc2cc1OCc1cc(-c2ccccc2)no1 [Example 177, N-(3,4-dichlorophenyl)-6-(methyloxy)-7-{[(3-phenylisoxazol-5-yl)methyl]oxy}quinazolin-4-amine] | – | < 50
COc1cc2c(Nc3ccc(Cl)c(Cl)c3)ncnc2cc1OCc1c(C)cc(C)cc1C [Example 178, N-(3,4-dichlorophenyl)-6-(methyloxy)-7-{[(2,4,6-trimethylphenyl)methyl]oxy}quinazolin-4-amine] | – | < 50
COc1ccc(-c2cc(COc3cc4ncnc(Nc5ccc(Cl)c(Cl)c5)c4cc3OC)on2)cc1 [Example 180, N-(3,4-dichlorophenyl)-6-(methyloxy)-7-[({3-[4-(methyloxy)phenyl]isoxazol-5-yl}methyl)oxy]quinazolin-4-amine] | – | < 50
COc1cc2c(Nc3ccc(Cl)c(Cl)c3)ncnc2cc1OCc1c(C(F)(F)F)nn(C)c1Oc1ccc(Cl)cc1Cl [Example 181, N-(3,4-dichlorophenyl)-7-({[5-[(2,4-dichlorophenyl)oxy]-1-methyl-3-(trifluoromethyl)-1H-pyrazol-4-yl]methyl}oxy)-6-(methyloxy)quinazolin-4-amine] | – | < 50
COc1cc2c(Nc3ccc(Cl)c(Cl)c3)ncnc2cc1OCc1noc(COCc2ccccc2)n1 [Example 211, N-(3,4-dichlorophenyl)-6-(methyloxy)-7-{[(5-{[(phenylmethyl)oxy]methyl}-1,2,4-oxadiazol-3-yl)methyl]oxy}quinazolin-4-amine] | – | < 50
CCN1CCC[C@H]1c1noc(COc2cc3ncnc(Nc4ccc(Cl)c(Cl)c4)c3cc2OC)n1 [Example 255, N-(3,4-dichlorophenyl)-7-[({3-[(2S)-1-ethylpyrrolidin-2-yl]-1,2,4-oxadiazol-5-yl}methyl)oxy]-6-(methyloxy)quinazolin-4-amine] | – | < 50
CCN1CCC[C@H]1c1nc(COc2cc3ncnc(Nc4ccc(Cl)c(Cl)c4)c3cc2OC)cs1 [Example 256, N-(3,4-dichlorophenyl)-7-[({2-[(2S)-1-ethylpyrrolidin-2-yl]-1,3-thiazol-4-yl}methyl)oxy]-6-(methyloxy)quinazolin-4-amine] | – | < 50
C=CCCCCN1CCOC(COc2cc3ncnc(Nc4ccc(Cl)c(Cl)c4)c3cc2OC)C1 (stereo not drawn) [Example 274, N-(3,4-dichlorophenyl)-7-{[(4-hex-5-en-1-ylmorpholin-2-yl)methyl]oxy}-6-(methyloxy)quinazolin-4-amine] | – | < 50
COC(=O)CCN1CCOC(COc2cc3ncnc(Nc4ccc(Cl)c(Cl)c4)c3cc2OC)C1 (stereo not drawn) [Example 276, methyl 3-[2-({[4-[(3,4-dichlorophenyl)amino]-6-(methyloxy)quinazolin-7-yl]oxy}methyl)morpholin-4-yl]propanoate] | – | < 50

Other lines, results leading:

IC50 (EphB4) [nM] | IC50 (EGFR) [nM] | SMILES
< 50 | < 50 | COc1cc2c(Nc3ccc(Br)c(Cl)c3)ncnc2cc1O[C@H]1CO[C@@H]2C3OC(C)(C)O[C@H]3O[C@H]12 (stereo partly drawn) [Example 80, 3,6-anhydro-5-O-[4-[(4-bromo-3-chlorophenyl)amino]-6-(methyloxy)quinazolin-7-yl]-1,2-O-(1-methylethylidene)-beta-L-xylo-hexofuranose]
< 50 | < 50 | COc1cc2c(Nc3ccc(F)c(F)c3F)ncnc2cc1O[C@@H]1CO[C@@H]2[C@H]1OC[C@H]2F [Example 84, 1,4:3,6-dianhydro-2-deoxy-2-fluoro-5-O-{6-(methyloxy)-4-[(2,3,4-trifluorophenyl)amino]quinazolin-7-yl}-D-iditol]
< 50 | < 50 | COc1cc2c(Nc3cccc(F)c3F)ncnc2cc1O[C@@H]1CO[C@@H]2[C@H]1OC[C@H]2F [Example 92, 1,4:3,6-dianhydro-2-deoxy-5-O-[4-[(2,3-difluorophenyl)amino]-6-(methyloxy)quinazolin-7-yl]-2-fluoro-D-iditol]
< 50 | < 50 | COc1cc2c(Nc3ccc(Br)c(Cl)c3Cl)ncnc2cc1O[C@@H]1CO[C@@H]2[C@H]1OC[C@H]2F [Example 103, 1,4:3,6-dianhydro-5-O-[4-[(4-bromo-2,3-dichlorophenyl)amino]-6-(methyloxy)quinazolin-7-yl]-2-deoxy-2-fluoro-D-iditol]
< 50 | < 50 | COc1cc2c(Nc3cc(Cl)c(Cl)cc3F)ncnc2cc1O[C@@H]1CO[C@@H]2[C@H]1OC[C@H]2F [Example 105, 1,4:3,6-dianhydro-2-deoxy-5-O-[4-[(4,5-dichloro-2-fluorophenyl)amino]-6-(methyloxy)quinazolin-7-yl]-2-fluoro-D-iditol]
< 50 | < 50 | COc1cc2c(Nc3cccc(Cl)c3)ncnc2cc1O[C@@H]1CO[C@@H]2[C@H]1OC[C@H]2F [Example 114, 1,4:3,6-dianhydro-5-O-[4-[(3-chlorophenyl)amino]-6-(methyloxy)quinazolin-7-yl]-2-deoxy-2-fluoro-D-iditol]
< 50 | < 50 | COc1cc2c(Nc3ccc(Cl)cc3Cl)ncnc2cc1O[C@@H]1CO[C@@H]2[C@H]1OC[C@H]2F [Example 117, 1,4:3,6-dianhydro-2-deoxy-5-O-[4-[(2,4-dichlorophenyl)amino]-6-(methyloxy)quinazolin-7-yl]-2-fluoro-D-iditol]
< 50 | < 50 | COc1cc2c(Nc3cccc(Br)c3)ncnc2cc1O[C@@H]1CO[C@@H]2[C@H]1OC[C@H]2F [Example 129, 1,4:3,6-dianhydro-5-O-[4-[(3-bromophenyl)amino]-6-(methyloxy)quinazolin-7-yl]-2-deoxy-2-fluoro-D-iditol]
< 50 | < 50 | COc1cc(OC)c(Nc2ncnc3cc(O[C@@H]4CO[C@@H]5[C@H]4OC[C@H]5F)c(OC)cc23)cc1Cl [Example 135, 1,4:3,6-dianhydro-5-O-[4-{[5-chloro-2,4-bis(methyloxy)phenyl]amino}-6-(methyloxy)quinazolin-7-yl]-2-deoxy-2-fluoro-D-iditol]
< 50 | < 50 | COc1cc2c(Nc3ccc(F)c(Cl)c3F)ncnc2cc1O[C@@H]1CO[C@@H]2[C@H]1OC[C@H]2F [Example 137, 1,4:3,6-dianhydro-5-O-[4-[(3-chloro-2,4-difluorophenyl)amino]-6-(methyloxy)quinazolin-7-yl]-2-deoxy-2-fluoro-D-iditol]
50 to 1000 | < 50 | COc1cc2c(Nc3ccc(Cl)c(Cl)c3)ncnc2cc1OCc1nc(CN(C)C)no1 [Example 139, N-(3,4-dichlorophenyl)-7-[({3-[(dimethylamino)methyl]-1,2,4-oxadiazol-5-yl}methyl)oxy]-6-(methyloxy)quinazolin-4-amine]
50 to 1000 | < 50 | COc1cc2c(Nc3ccc(Cl)c(Cl)c3)ncnc2cc1OCc1noc(C2CCNCC2)n1 [Example 141, N-(3,4-dichlorophenyl)-6-(methyloxy)-7-{[(5-piperidin-4-yl-1,2,4-oxadiazol-3-yl)methyl]oxy}quinazolin-4-amine]
50 to 1000 | < 50 | COc1cc2c(Nc3ccc(Cl)c(Cl)c3)ncnc2cc1OCc1noc(C2CCN(C)CC2)n1 [Example 142, N-(3,4-dichlorophenyl)-6-(methyloxy)-7-({[5-(1-methylpiperidin-4-yl)-1,2,4-oxadiazol-3-yl]methyl}oxy)quinazolin-4-amine]
50 to 1000 | < 50 | COc1cc2c(Nc3ccc(Cl)c(Cl)c3)ncnc2cc1OCc1nc(CN2CCOCC2)no1 [Example 143, N-(3,4-dichlorophenyl)-6-(methyloxy)-7-({[3-(morpholin-4-ylmethyl)-1,2,4-oxadiazol-5-yl]methyl}oxy)quinazolin-4-amine]
– | < 50 | COc1cc2c(Nc3ccc(Cl)c(Cl)c3)ncnc2cc1OCc1nc(-c2ccc(Cl)cc2)no1 [Example 168, 7-({[3-(4-chlorophenyl)-1,2,4-oxadiazol-5-yl]methyl}oxy)-N-(3,4-dichlorophenyl)-6-(methyloxy)quinazolin-4-amine]
– | < 50 | COc1cc2c(Nc3ccc(Cl)c(Cl)c3)ncnc2cc1OCc1c(OC)ccc2cc(Br)ccc12 [Example 169, 7-({[6-bromo-2-(methyloxy)naphthalen-1-yl]methyl}oxy)-N-(3,4-dichlorophenyl)-6-(methyloxy)quinazolin-4-amine]
– | < 50 | COc1cc2c(Nc3ccc(Cl)c(Cl)c3)ncnc2cc1OCc1ccc(Cl)nc1 [Example 171, 7-{[(6-chloropyridin-3-yl)methyl]oxy}-N-(3,4-dichlorophenyl)-6-(methyloxy)quinazolin-4-amine]
